The nature of the data set: Human HepG2 cell viability assay in 384 well format. The class given is toxicity, cell-based. The note with it: HepG2 cells, read-out: Inhibition. Further details: dose 125 nL, time 70.5 hour; concentration not given beside the values.

SMILES strings stand for the structures.

With `CC(=O)N1CCC2(CC1)CNc1ccc(F)cc12`, the cytotoxicity at 70.5 h was -5.28%.
As to `CCC(=O)N1CCC2(COCc3c(C)nc(NCc4ccco4)nc32)C1` (configuration not stated), the cytotoxicity at 70.5 h was -6.57%.
The figure for `CCOCC1CC2(CCN(C(=O)C3CC=CC3)CC2)CO1` (configuration not stated) is -8.99%; for `CC(C)Nc1nc2c(c(N(C)C)n1)CCN(C(=O)c1cc[nH]n1)CC2` it is -10.4%; for `Cc1cccc(S(=O)(=O)N2C[C@@H]3OCCN(C(C)C)[C@@H]3C2)c1` it is -6.06%.
The figure for `O=C(c1cccnc1)N1CCc2onc(CN3CCCC3)c2C1` is -4.02%; for `O=C(c1cnccn1)N1CCc2onc(CN3CCCC3)c2C1` it is 1.69%; for `CNC(=O)N1CCC2(COCc3c(C)nc(NCc4ccco4)nc32)C1` (configuration not stated) it is -6.98%.
The figure for `O=C(c1ccnnc1)N1CCc2onc(CN3CCCC3)c2C1` is -3.95%; for `CCN(C(=O)c1nc2c(s1)CCCN2Cc1ccccc1)C(C)C` it is -7.5%; for `Cc1nc(N2CCOCC2)nc2c1CCN(c1nccs1)CC2` it is -5.03%.
As for `Cc1ccc(N2CC[C@@H]3O[C@@H](c4ccncn4)C[C@H]3C2)nn1`, the cytotoxicity at 70.5 h is -3.76%.
In the case of `O=C1[C@H]2CN(c3ncc(F)cn3)C[C@H]2CN1CC1CC1`, the cytotoxicity at 70.5 h amounted to 5.29%.
The figure for `O=S(=O)(C1CC1)N1CCOC2(CCCN(c3ccccc3)C2)C1` (configuration not stated) is 7.04%; for `Cc1cnc(N2C[C@@H]3CCN(CC4CC4)C(=O)[C@H]3C2)nc1` it is -4.98%; for `O=C(c1ccc(F)cc1)N1C[C@@H]2CN(c3ncccn3)C[C@@H]2C1` it is -6.82%.
The figure for `O=S(=O)(C1CC1)N1CCC2(CCCN(c3ncc(F)cn3)C2)C1` (configuration not stated) is -11.2%; for `Cn1cnc2c1C(C(=O)N1CCCC1)N(S(C)(=O)=O)CC2` (configuration not stated) it is -7.56%; for `O=C(CO)N1CC2(CCN(c3ccccc3)C2)C1` it is -6.59%.
The figure for `CC(=O)N1CCC2(CC1)c1ncc(-c3ccccc3)n1CCN2C(C)=O` is -5.58%; for `CN(C)c1nc(N2CCCC2)nc2c1CCN(C(=O)c1ccoc1)CC2` it is 0.617%.
In the case of `O=C1NCCO[C@H]2CN(C(=O)CCc3ccc(Cl)cc3)CC[C@@H]12`, the cytotoxicity at 70.5 h is -17.3%.
The figure for `O=C1CC[C@@H]2[C@@H](CCN2C(=O)C2CCOCC2)N1CC1CC1` is -8.18%.
The figure for `CCOc1ccc(CCC(=O)N2CC[C@H]3C(=O)NCCO[C@H]3C2)cc1` is -10.6%; for `O=C1CC(c2cccs2)Cc2[nH]c(=O)ccc21` (configuration not stated) it is -7.47%.
The figure for `O=C1CC(c2cccs2)Cc2[nH]c(=O)c(C(=O)NC3CCCC3)cc21` (configuration not stated) is -12.4%; for `COc1cc(CCO)c(OC)c2c1OCO2` it is -7.84%; for `COc1cccc(C2SCC(=O)Nc3ccsc32)c1OC` (configuration not stated) it is 1.7%.
On to `O=C1CC(c2ccc(C(=O)O)cc2)c2ncn(-c3cccnc3)c2N1` (configuration not stated), for which the cytotoxicity at 70.5 h is -2.41%.
The figure for `COc1cc(C2SCC(=O)Nc3ccsc32)cc(OC)c1O` (configuration not stated) is -4.76%; for `COCCNC(=O)c1cc2c(nc1O)CC(c1cccs1)CC2=O` (configuration not stated) it is -12.9%.
The figure for `CC1CCc2nc(O)c(C(=O)NCc3ccccn3)cc2C1` (configuration not stated) is -5.86%; for `CC1CCc2nc(O)c(C(=O)NCCc3cccs3)cc2C1` (configuration not stated) it is -7.76%.
The figure for `CCOC(=O)N1CCN(c2nc(NCCO)c3ccccc3n2)CC1` is -9.59%.
Regarding `CC(=O)c1ccc(-n2ccc3nc(N4CCCC4)ncc3c2=O)cc1`, the cytotoxicity at 70.5 h is -5.08%.
The figure for `O=c1c2cnc(N3CCCC3)nc2ccn1-c1cccc(F)c1` is -0.217%.
The figure for `CCCN1Cc2cc(Br)ccc2OCC1=O` is 28.2%.
The figure for `CN(c1ncc(C(=O)NCc2ccccc2)c(N)n1)C1CCCCC1` is 18%; for `CN(c1ncc(C(=O)Nc2ccccc2)c(N)n1)C1CCCCC1` it is -0.75%.
`COc1cc(OC)c(-n2nnc(C(=O)O)c2C)cc1Cl`: the cytotoxicity at 70.5 h is 1.66%.
The figure for `CC(C)=CCC/C(C)=C/CC(C)(C)CNCc1ccco1` is -1%; for `COc1ccc(OCC(=O)n2nc(C)c(C)c2C)cc1` it is 3.85%; for `CCOc1cc2c(cc1CCC(=O)O)CCC2` it is 7.85%.
The figure for `CCOc1cc2c(cc1C(=O)O)CCC2` is 11.4%.
The figure for `Cc1cc(NCCO)nc(N2CCCC2)c1C#N` is 2.8%.
In the case of `COCc1nc2nc(O)c3c(n2n1)NC(=O)CC3c1ccccc1Cl` (configuration not stated), the cytotoxicity at 70.5 h is 4.14%.
The figure for `CC(=O)N1CCc2nc3sc(C(N)=O)c(N)c3c(C(F)(F)F)c2C1` is 6.92%; for `CC(=O)Nc1nc(-c2ccc(C)c(C)c2)c[nH]1` it is 0.35%; for `O=c1[nH]nc(-c2cccs2)c2sc(N3CCOCC3)nc12` it is -4.15%.
Turning to `Cc1nc(C#N)c(N2CCC(c3nc(-c4ccccc4)no3)CC2)o1`, the cytotoxicity at 70.5 h was -4.24%.
The figure for `Oc1nnc(-c2cccs2)c2sc(N3CCCCC3)nc12` is -1.82%.
The figure for `O=c1[nH]c2nc(N3CCCC3)ncc2c(=O)n1-c1cccc(F)c1` is -16.9%; for `NC(=O)C1CCN(c2nc3nccc(-c4cccnc4)c3c(=O)[nH]2)CC1` it is -2.94%; for `CCN(c1ccc(C(=O)NCCCN2CCCCC2)cc1)S(=O)(=O)CC` it is -26.7%.
As to `COc1ccccc1C1CC(=O)Nc2nc(N3CCCCC3)sc21` (configuration not stated), the cytotoxicity at 70.5 h was -18.8%.
The figure for `O=C(NCc1ccccc1)c1nn(C2CCS(=O)(=O)C2)c2c1CCCC2` (configuration not stated) is 4.17%; for `Nc1nc2c(s1)C(c1c(F)cccc1Cl)CC(=O)N2` (configuration not stated) it is 1.77%; for `CC(C)OCCCNC(=O)c1c(-n2cnnn2)sc2c1CCCC2` it is -25.4%.
With `Cc1cc(O)c(OCC(=O)/N=c2\[nH]c(C)c(C)s2)cn1`, the cytotoxicity at 70.5 h was found to be 5.16%.
The figure for `Cc1cc(O)c(OCC(=O)/N=c2/[nH]c3c(s2)CCC3)cn1` is -14.7%; for `COc1ccc(C2SCC(=O)Nc3n[nH]cc32)c(OC)c1OC` (configuration not stated) it is 5.69%; for `O=C(c1cc(-n2cnnn2)ccc1Cl)N1CCOCC1` it is -21.4%.
As to `Cc1cc(O)c(OCC(=O)Nc2nc3c(s2)CCCCC3)cn1`, the cytotoxicity at 70.5 h was -1.73%.
The figure for `CC(C)CNC(=O)c1c(-n2cnnn2)sc2c1CCCC2` is -4.4%.
The figure for `COc1cccc(C2CC(=O)Nc3nc(N4CCCCC4)sc32)c1OC` (configuration not stated) is -6.7%; for `O=C1CC(c2ccccc2Br)c2sc(N3CCOCC3)nc2N1` (configuration not stated) it is 2.49%; for `CC(C)Oc1ccccc1C1CC(=O)Nc2nc(N3CCOCC3)sc21` (configuration not stated) it is -13.2%.
In the case of `COc1ccc(OC)c(C2CC(=O)Nc3nc(N4CCOCC4)sc32)c1` (configuration not stated), the cytotoxicity at 70.5 h is 4.11%.
The figure for `COc1ccc(C2CC(=O)Nc3nc(N4CCOCC4)sc32)cc1` (configuration not stated) is -6.38%; for `COCCCNC(=O)c1c(-n2cnnn2)sc2c1CCC2` it is -3.39%.
The figure for `Cn1ncc2c1NC(=O)CSC2c1ccccc1Cl` (configuration not stated) is 14.7%.
The figure for `CC(C)CCn1[nH]c(CNc2ccc(Cl)cc2)nc1=O` is 0.442%; for `CNc1nc2c(s1)C(c1cccc(Cl)c1Cl)CC(=O)N2` (configuration not stated) it is -8.56%.
Regarding `CNc1nc2c(s1)C(c1ccc(Cl)cc1Cl)CC(=O)N2` (configuration not stated), the cytotoxicity at 70.5 h was -5.21%.
The figure for `Cc1ccc(N2N=C(C(N)=O)S(=O)(=O)c3cccnc32)cc1` is -2.2%; for `CCOc1cc(=O)n2c(c1C(=O)OCc1ccc(C)cc1)CCCC2` it is 24.4%.
As to `CC1CCN(c2ncc3c(n2)CN(c2ccccc2)C3=O)CC1`, the cytotoxicity at 70.5 h is -9.08%.
The figure for `CNC(=O)N1CCC2(CC1)CNc1ccc(F)cc12` is -5.44%; for `CCOC(=O)N1CCN(c2nc(NC3CC3)c3ccccc3n2)CC1` it is 3.06%; for `CNCc1ccc(OCc2ccc3c(c2)OCCO3)cc1` it is -3.57%.
The figure for `CC(C)(C)NCc1ccc(OCc2ccc3c(c2)OCCO3)cc1` is 8.79%; for `CCC1=N[C@@]2(CC[C@@H]3CN(CC(C)C)C[C@@H]32)C(=O)N1` it is -2.78%; for `c1cnc(N2CCOCC3(CCCN(Cc4cc[nH]n4)C3)C2)nc1` (configuration not stated) it is -3%.
The figure for `O=C(COC1CCCC1)N1C[C@@H]2CN(Cc3ccoc3)CCO[C@@H]2C1` is -6.78%; for `Cc1nc2c(c(NC(C)C)n1)CCN(C(=O)c1ccno1)CC2` it is -6.32%.
For `CN1CCO[C@@H]2CN(S(=O)(=O)c3ccccc3F)CC[C@@H]2C1`, the cytotoxicity at 70.5 h was -1.61%.
For the molecule `O=C(c1ccccn1)N1CCOC2(COCCN(Cc3cc[nH]n3)C2)C1` (configuration not stated), the cytotoxicity at 70.5 h is -3.84%.
The figure for `CC(C)n1cnc2c1C(C(=O)N1CCOCC1)N(CC1CC1)CC2` (configuration not stated) is -15.8%.
Take `Cc1cnc(N2C[C@@H]3CCN(CC(=O)N(C)C)C(=O)[C@H]3C2)nc1`: the cytotoxicity at 70.5 h is 4.34%.
The figure for `CCN1C[C@@H]2CN(C(=O)NCc3ccccc3)CCC[C@]2(C(=O)O)C1` is -15.2%.
The figure for `CCc1ccc(CN2CCc3c(nnn3C)C2COC)cc1` (configuration not stated) is -5.54%.
The figure for `CN1C[C@@H]2CN(C(=O)NCc3ccccc3)CCC[C@]2(C(=O)O)C1` is -1.78%.
Turning to `CC(C)N1C[C@@H]2CN(C(=O)NCc3ccccc3)CCC[C@]2(C(=O)O)C1`, the cytotoxicity at 70.5 h was -4.97%.
`c1ccc(CN2CCCn3nnc(COc4ccccn4)c3C2)nc1`: the cytotoxicity at 70.5 h is -11.2%.
The figure for `Cc1ccc(N2C[C@@H]3CN(Cc4csc(C)n4)CCO[C@@H]3C2)nn1` is -2.48%; for `CN(C)c1nc(N2CCCC2)nc2c1CCN(C(=O)c1ccco1)CC2` it is -7.2%.
The figure for `CC(C)N1[C@H](CN(C)C)C[C@@H]2CN(c3ncc(F)cn3)CC[C@@H]21` is 6.71%.
